Assay results as given in patent US20250381243A1, “HETEROCYCLES AND USES THEREOF” (Kumquat Biosciences Inc., priority 2022, published 2025).

test system: A549 cells; assay: Cell proliferation assay (CellTiter-Glo), cells with K-Ras G12S mutation; assay type: cell-based; details: Homo sapiens, 500 nM to 5 μM (mixed units), read-out: Inhibition of A549 Cells (IC50)
Method: A549 (ATCC CRL-185) and LS123 (ATCC CRL-255) cell lines comprise a G12S mutation and can be used to assess Ras cellular signaling in vitro, e.g., in response to treatment with a compound described herein. A549 culture medium is prepared with RPMI-1640 and 10% heat-inactivated FBS. LS123 culture medium is prepared with RPMI-1640 and 10% heat-inactivated FBS. A CellTiter-Glo (CTG) luminescent based assay (Promega) is used to assess growth of the cells, as a measurement of the ability of the compounds herein to inhibit Ras signaling in the cells. The cells (e.g., 800 per well) are seeded in their respective culture medium in standard tissue culture-treated 384-well format plates (Falcon #08-772-116) or ultra-low attachment surface 384-well format plates (S-Bio #MS-9384WZ). The day after plating, cells are treated with a dilution series (e.g., a 10 point 3-fold dilution series) of the compounds herein (e.g., approximately 40 μl final volume per well). Cell viability can be monitored (e.g., approximately 6 days later) according to the manufacturer's recommended instructions, where CellTiter-Glo reagent is added (e.g., approximately 10 μl), vigorously mixed, covered, and placed on a plate shaker (e.g., approximately for 20 min) to ensure sufficient cell lysis prior to assessment of luminescent signal. The IC50 values are determined using the four parameter fit. The resulting IC50 value is a measurement of the ability of the test compound to reduce cell growth of Ras-driven cells (e.g., tumor cell lines) in vitro and/or in vivo.

Row | IC50 | SMILES
1 | 500 to 5000 nM | N#CCCN(C(=O)n1cncn1)C1CCN(c2nc(OC[C@@]34CCCN3C[C@H](F)C4)nc3c(F)c(-c4ccc(F)c5sc(N)c(C#N)c45)c(Cl)cc23)C1 (stereo partly drawn) [Compound 145, N-(1-(7-(2-amino-3-cyano-7-fluorobenzo[b]thiophen-4-yl)-6-chloro-8-fluoro-2-(((2R,7aS)-2-fluorotetrahydro-1H-pyrrolizin-7a(5H)-yl)methoxy)quinazolin-4-yl)pyrrolidin-3-yl)-N-(2-cyanoethyl)-1H-1,2,4-triazole-1-carboxamide]
2 | 500 to 5000 nM | N#Cc1c(N)sc2c(F)ccc(-c3c(Cl)cc4c(N5CCCC(N(C(=O)n6cnc(Cl)n6)C6CC6)C5)nc(OC[C@@]56CCCN5C[C@H](F)C6)nc4c3F)c12 (stereo partly drawn) [Compound 151, N-(1-(7-(2-amino-3-cyano-7-fluorobenzo[b]thiophen-4-yl)-6-chloro-8-fluoro-2-(((2R,7aS)-2-fluorotetrahydro-1H-pyrrolizin-7a(5H)-yl)methoxy)quinazolin-4-yl)piperidin-3-yl)-3-chloro-N-cyclopropyl-1H-1,2,4-triazole-1-carboxamide]

same assay, conditions: Homo sapiens, ≤500 nM, read-out: Inhibition of A549 Cells (IC50)

Row | SMILES | IC50
3 | CCN(C(=O)n1cnc(F)n1)[C@@H]1CCN(c2nc(OC[C@@]34CCCN3C[C@H](F)C4)nc3c(F)c(-c4ccc(F)c5sc(N)c(C#N)c45)c(Cl)cc23)[C@@H]1C [Compound 115, N-((2R,3R)-1-(7-(2-amino-3-cyano-7-fluorobenzo[b]thiophen-4-yl)-6-chloro-8-fluoro-2-(((2R,7aS)-2-fluorotetrahydro-1H-pyrrolizin-7a(5H)-yl)methoxy)quinazolin-4-yl)-2-methylpyrrolidin-3-yl)-N-ethyl-3-fluoro-1H-1,2,4-triazole-1-carboxamide] | ≤ 500 nM
4 | C[C@H]1CC[C@]2(CN(C(=O)n3cnc(F)n3)[C@@H]2C2(C(F)F)CC2)CN1c1nc(OC[C@@]23CCCN2C[C@H](F)C3)nc2c(F)c(-c3ccc(F)c4sc(N)c(C#N)c34)c(Cl)cc12 (atropisomer, axis not shown; (aS)) [Compound 194, (R)-2-amino-4-(6-chloro-4-((1S,4R,7S)-1-(1-(difluoromethyl)cyclopropyl)-2-(3-fluoro-1H-1,2,4-triazole-1-carbonyl)-7-methyl-2,6-diazaspiro[3.5]nonan-6-yl)-8-fluoro-2-(((2R,7aS)-2-fluorotetrahydro-1H-pyrrolizin-7a(5H)-yl)methoxy)quinazolin-7-yl)-7-fluorobenzo[b]thiophene-3-carbonitrile] | ≤ 500 nM
5 | N#Cc1c(N)sc2c(F)ccc(-c3c(Cl)cc4c(N5CCCC[C@@]6(C5)CN(C(=O)n5cnc(Cl)n5)[C@@H]6C5CC5)nc(OC[C@@]56CCCN5C[C@H](F)C6)nc4c3F)c12 [Compound 147, 2-amino-4-(6-chloro-4-((1R,4R)-2-(3-chloro-1H-1,2,4-triazole-1-carbonyl)-1-cyclopropyl-2,6-diazaspiro[3.6]decan-6-yl)-8-fluoro-2-(((2R,7aS)-2-fluorotetrahydro-1H-pyrrolizin-7a(5H)-yl)methoxy)quinazolin-7-yl)-7-fluorobenzo[b]thiophene-3-carbonitrile] | ≤ 500 nM
6 | CC(C)[C@H]1N(C(=O)n2cnc(C(F)F)n2)C[C@]12CCCCN(c1nc(OC[C@@]34CCCN3C[C@H](F)C4)nc3c(F)c(-c4ccc(F)c5sc(N)c(C#N)c45)c(Cl)cc13)C2 [Compound 226, 2-amino-4-(6-chloro-4-((1R,4R)-2-(3-(difluoromethyl)-1H-1,2,4-triazole-1-carbonyl)-1-isopropyl-2,6-diazaspiro[3.6]decan-6-yl)-8-fluoro-2-(((2R,7aS)-2-fluorotetrahydro-1H-pyrrolizin-7a(5H)-yl)methoxy)quinazolin-7-yl)-7-fluorobenzo[b]thiophene-3-carbonitrile] | ≤ 500 nM

Other lines, results leading:

Row | IC50 | SMILES
7 | ≤ 500 nM | CC1([C@H]2N(C(=O)n3cnc(F)n3)C[C@]23CCCN(c2nc(OC[C@@]45CCCN4C[C@H](F)C5)nc4c(F)c(-c5ccc(F)c6sc(N)c(C#N)c56)c(Cl)cc24)C3)CC1 [Compound 216, 2-amino-4-(6-chloro-8-fluoro-4-((1R,4R)-2-(3-fluoro-1H-1,2,4-triazole-1-carbonyl)-1-(1-methylcyclopropyl)-2,6-diazaspiro[3.5]nonan-6-yl)-2-(((2R,7aS)-2-fluorotetrahydro-1H-pyrrolizin-7a(5H)-yl)methoxy)quinazolin-7-yl)-7-fluorobenzo[b]thiophene-3-carbonitrile]
8 | ≤ 500 nM | CC(C)[C@H]1N(C(=O)n2cnc(C(F)F)n2)C[C@]12CCCN(c1nc(OC[C@@]34CCCN3C[C@H](F)C4)nc3c(F)c(-c4ccc(F)c5sc(N)c(C#N)c45)c(Cl)cc13)C2 [Compound 165, 2-amino-4-(6-chloro-4-((1R,4R)-2-(3-(difluoromethyl)-1H-1,2,4-triazole-1-carbonyl)-1-isopropyl-2,6-diazaspiro[3.5]nonan-6-yl)-8-fluoro-2-(((2R,7aS)-2-fluorotetrahydro-1H-pyrrolizin-7a(5H)-yl)methoxy)quinazolin-7-yl)-7-fluorobenzo[b]thiophene-3-carbonitrile]
9 | ≤ 500 nM | CC(C)[C@H]1N(C(=O)n2cncn2)C[C@]12CCCN(c1nc(OC[C@@]34CCCN3C[C@H](F)C4)nc3c(F)c(-c4ccc(F)c5sc(N)c(C#N)c45)c(Cl)cc13)C2 [Compound 118, 2-amino-4-(6-chloro-8-fluoro-2-(((2R,7aS)-2-fluorotetrahydro-1H-pyrrolizin-7a(5H)-yl)methoxy)-4-((1R,4R)-1-isopropyl-2-(1H-1,2,4-triazole-1-carbonyl)-2,6-diazaspiro[3.5]nonan-6-yl)quinazolin-7-yl)-7-fluorobenzo[b]thiophene-3-carbonitrile]
10 | ≤ 500 nM | CC(C)[C@H]1N(C(=O)n2cnc(F)n2)C[C@]12CC[C@H](C)N(c1nc(OC[C@@]34CCCN3C[C@H](F)C4)nc3c(F)c(-c4ccc(F)c5sc(N)c(C#N)c45)c(Cl)cc13)C2 [Compound 213, 2-amino-4-(6-chloro-8-fluoro-4-((1R,4R,7S)-2-(3-fluoro-1H-1,2,4-triazole-1-carbonyl)-1-isopropyl-7-methyl-2,6-diazaspiro[3.5]nonan-6-yl)-2-(((2R,7aS)-2-fluorotetrahydro-1H-pyrrolizin-7a(5H)-yl)methoxy)quinazolin-7-yl)-7-fluorobenzo[b]thiophene-3-carbonitrile]
11 | ≤ 500 nM | CCN(C(=O)n1cnc(Cl)n1)[C@@H]1CCN(c2nc(OC[C@@]34CCCN3C[C@H](F)C4)nc3c(F)c(-c4ccc(F)c5sc(N)c(C#N)c45)c(Cl)cc23)[C@@H]1C (single isomer, unassigned) [Compound 171]
12 | ≤ 500 nM | CC1([C@H]2N(C(=O)n3cnc(C(F)F)n3)C[C@]23CCCN(c2nc(OC[C@@]45CCCN4C[C@H](F)C5)nc4c(F)c(-c5ccc(F)c6sc(N)c(C#N)c56)c(Cl)cc24)C3)CC1 [Compound 234, 2-amino-4-(6-chloro-4-((1R,4R)-2-(3-(difluoromethyl)-1H-1,2,4-triazole-1-carbonyl)-1-(1-methylcyclopropyl)-2,6-diazaspiro[3.5]nonan-6-yl)-8-fluoro-2-(((2R,7aS)-2-fluorotetrahydro-1H-pyrrolizin-7a(5H)-yl)methoxy)quinazolin-7-yl)-7-fluorobenzo[b]thiophene-3-carbonitrile]
13 | ≤ 500 nM | CN(C(=O)n1cncn1)C1CCCCN(c2nc(OC[C@@]34CCCN3C[C@H](F)C4)nc3c(F)c(-c4ccc(F)c5sc(N)c(C#N)c45)c(Cl)cc23)C1 (stereo partly drawn) [Compound 161, N-(1-(7-(2-amino-3-cyano-7-fluorobenzo[b]thiophen-4-yl)-6-chloro-8-fluoro-2-(((2R,7aS)-2-fluorotetrahydro-1H-pyrrolizin-7a(5H)-yl)methoxy)quinazolin-4-yl)azepan-3-yl)-N-methyl-1H-1,2,4-triazole-1-carboxamide]
14 | ≤ 500 nM | CC(C)[C@H]1N(C(=O)n2cncn2)C[C@@]12CN(c1nc(OC[C@@]34CCCN3C[C@H](F)C4)nc3c(F)c(-c4ccc(F)c5sc(N)c(C#N)c45)c(Cl)cc13)CCO2 [Compound 104, 2-amino-4-(6-chloro-8-fluoro-2-(((2R,7aS)-2-fluorotetrahydro-1H-pyrrolizin-7a(5H)-yl)methoxy)-4-((1R,4S)-1-isopropyl-2-(1H-1,2,4-triazole-1-carbonyl)-5-oxa-2,8-diazaspiro[3.5]nonan-8-yl)quinazolin-7-yl)-7-fluorobenzo[b]thiophene-3-carbonitrile]
15 | ≤ 500 nM | CCC1N(C(=O)n2cncn2)CC12CCN(c1nc(OC[C@@]34CCCN3C[C@H](F)C4)nc3c(F)c(-c4ccc(F)c5sc(N)c(C#N)c45)c(Cl)cc13)C2 (stereo partly drawn) [Compound 123, (4R)-2-amino-4-(6-chloro-4-(1-ethyl-2-(1H-1,2,4-triazole-1-carbonyl)-2,6-diazaspiro[3.4]octan-6-yl)-8-fluoro-2-(((2R,7aS)-2-fluorotetrahydro-1H-pyrrolizin-7a(5H)-yl)methoxy)quinazolin-7-yl)-7-fluorobenzo[b]thiophene-3-carbonitrile]
